This is an account of results in patent US8013153B2, “Substituted pyrimidine kinase inhibitors” (Janssen Pharmaceutica, N.V., priority 2006, dated 2011).

The target of one data set is tyrosine kinase KIT (Homo sapiens, UniProt P10721). In words: KIT Kinase Screening Assay.
The next data set deals with T1, CDK1:Cyclin-B (Homo sapiens, UniProt P06493).
T1 construct: purchased New England Biolabs, Beverly, Mass; 6020; host or cells: insect cells
In words: CDK1 Screening Assay. It is filed as biochemical.

For the next data set, the target named is T2, HER2 cytoplasmic domain (Homo sapiens, UniProt P04626).
T2 construct: polyhistidine (N)
T2 sequence (P04626 676-1255 limits assumed): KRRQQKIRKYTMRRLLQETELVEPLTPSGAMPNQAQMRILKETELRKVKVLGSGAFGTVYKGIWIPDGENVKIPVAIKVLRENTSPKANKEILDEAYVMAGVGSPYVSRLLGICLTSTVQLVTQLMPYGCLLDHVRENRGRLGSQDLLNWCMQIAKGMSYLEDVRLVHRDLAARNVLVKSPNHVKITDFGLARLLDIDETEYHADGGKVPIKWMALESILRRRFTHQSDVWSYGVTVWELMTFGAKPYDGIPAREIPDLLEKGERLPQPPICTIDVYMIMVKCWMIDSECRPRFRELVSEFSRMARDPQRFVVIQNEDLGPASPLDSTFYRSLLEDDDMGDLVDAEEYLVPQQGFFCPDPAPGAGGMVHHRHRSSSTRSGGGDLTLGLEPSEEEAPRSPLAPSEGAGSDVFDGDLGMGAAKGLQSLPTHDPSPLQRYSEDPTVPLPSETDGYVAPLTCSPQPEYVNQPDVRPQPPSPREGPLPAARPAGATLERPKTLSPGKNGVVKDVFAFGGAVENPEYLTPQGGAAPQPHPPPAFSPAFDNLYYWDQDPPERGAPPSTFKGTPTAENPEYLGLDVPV
In words: HER2 Kinase Screening Assay. Format: biochemical. Particulars: > means no observed 50% inhibition at the indicated test concentration; ~ means approximately 50% inhibition at that concentration.

A further data set relates to HCT-116 colon carcinoma. The experiment in a line: Inhibition of in vitro cell proliferation (HCT116).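 Note: cells exposed to compound for 24 h, then 14C-thymidine added for a further 24 h and its uptake into DNA counted by scintillation, DMSO-only wells as control.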 To be noted: Homo sapiens, HCT-116, 14C-thymidine incorporation. It is filed as cell-based, human. (In general: Incorporation of labelled thymidine or its analogues reports DNA synthesis.)
Data set [1] can be described thus: In vivo tumor xenograft models overall (tolerability, body weight, plasma levels). The method, then: Female Nu/Nu˜nuBR athymic nude mice (obtained from Charles River Laboratories), at the age of 5-6 weeks were feed water and an irradiated standard rodent diet ad libitum, and housed in specific pathogen-free conditions, according to the guidelines of the American Association for Accreditation of Lab Animal Care (AALAC).
Tumor measurements and body weights were recorded individually (2×/week) during the treatment period of the experiment. Tumors were measured using a digital caliper. Data was recorded/calculated using Study Director software (StudyLog Systems, Inc.) and graphs were created in GraphPad Prizm.
The volume of each tumor in an animal was calculated according to the formula: (D×d^2)/2, where the diameters were determined from two orthogonal measurements on each tumor. The mean tumor volume was determined by averaging all tumor volumes in each group. The mean body weight was determined by averaging all body weights in each group.

Another data set deals with V600E Raf mutant (Homo sapiens, UniProt P15056, V600E). In words: RAF Kinase Screening Assay (V600E Raf mutant). To be noted: Compound 50 tested at 30 μM.
Chain of V600E Raf mutant (P15056 whole entry V600E): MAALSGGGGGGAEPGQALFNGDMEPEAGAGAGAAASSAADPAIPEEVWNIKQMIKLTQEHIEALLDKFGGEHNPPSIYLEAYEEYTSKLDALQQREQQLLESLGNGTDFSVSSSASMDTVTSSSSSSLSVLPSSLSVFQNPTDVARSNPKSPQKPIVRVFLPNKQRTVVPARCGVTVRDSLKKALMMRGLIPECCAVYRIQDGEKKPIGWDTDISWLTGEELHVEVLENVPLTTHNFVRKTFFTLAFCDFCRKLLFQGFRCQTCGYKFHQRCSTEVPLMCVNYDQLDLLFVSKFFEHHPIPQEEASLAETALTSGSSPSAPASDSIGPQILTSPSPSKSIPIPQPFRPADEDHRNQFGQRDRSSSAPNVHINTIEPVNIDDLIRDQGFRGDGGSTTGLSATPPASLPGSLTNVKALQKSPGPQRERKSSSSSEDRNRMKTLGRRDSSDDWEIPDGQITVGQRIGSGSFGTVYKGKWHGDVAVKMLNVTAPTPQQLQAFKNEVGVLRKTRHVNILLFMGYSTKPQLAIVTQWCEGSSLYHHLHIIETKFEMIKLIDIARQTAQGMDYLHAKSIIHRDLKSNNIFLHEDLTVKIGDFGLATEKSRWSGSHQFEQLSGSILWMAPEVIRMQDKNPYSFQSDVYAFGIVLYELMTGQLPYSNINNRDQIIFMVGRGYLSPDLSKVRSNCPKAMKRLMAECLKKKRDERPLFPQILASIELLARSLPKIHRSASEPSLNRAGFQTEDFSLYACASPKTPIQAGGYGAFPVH
Another data set concerns A375 malignant melanoma. The experiment in a line: Inhibition of in vitro cell proliferation (A375).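 Note: cells plated for 24 h, given compound for 24 h, then labelled with 14C-thymidine for another 24 h, with DMSO-only wells as control and counts read by scintillation.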 Format: cell-based, human. To be noted: Homo sapiens, A-375, 14C-thymidine incorporation.
The test system of data set [2] is Human Umbilical Vein Endothelial Cells (HUVEC). In words: VEGF Mediated Cell Migration Assay. It is filed as cell-based. Particulars: VEGF 10 ng/mL, VEGF control = 100%.
The target of a further data set is T3, murine Aurora-A (Mus musculus, UniProt P97477).
T3 construct: replaced with the full length protein encoding the murine Aurora-A; made in house; host or cells: sf9 insect cells
T3 sequence (P97477 1-395): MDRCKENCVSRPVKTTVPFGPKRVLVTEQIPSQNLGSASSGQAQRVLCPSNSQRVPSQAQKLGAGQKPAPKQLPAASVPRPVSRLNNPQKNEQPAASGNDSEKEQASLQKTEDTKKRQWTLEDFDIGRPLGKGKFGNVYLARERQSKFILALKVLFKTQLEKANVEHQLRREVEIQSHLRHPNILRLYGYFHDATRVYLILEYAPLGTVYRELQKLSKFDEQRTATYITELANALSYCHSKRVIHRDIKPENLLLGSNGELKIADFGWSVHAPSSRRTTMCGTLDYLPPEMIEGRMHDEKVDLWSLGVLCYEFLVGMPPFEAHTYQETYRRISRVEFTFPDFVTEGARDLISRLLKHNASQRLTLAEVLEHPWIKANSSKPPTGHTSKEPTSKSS
The experiment in a line: Aurora-A Screening Assay. Format: biochemical.

The mark [3] stands for this setting: 100 mg/kg daily, 24-28 days of treatment.
Setting [4] is: A431 and HCT116 models, continuous administration for 24 days.

pIC50: −log10 of the molar value. Entries after “also recorded” stand apart in the source; their conditions may differ.

T1 sequence (P06493 whole entry): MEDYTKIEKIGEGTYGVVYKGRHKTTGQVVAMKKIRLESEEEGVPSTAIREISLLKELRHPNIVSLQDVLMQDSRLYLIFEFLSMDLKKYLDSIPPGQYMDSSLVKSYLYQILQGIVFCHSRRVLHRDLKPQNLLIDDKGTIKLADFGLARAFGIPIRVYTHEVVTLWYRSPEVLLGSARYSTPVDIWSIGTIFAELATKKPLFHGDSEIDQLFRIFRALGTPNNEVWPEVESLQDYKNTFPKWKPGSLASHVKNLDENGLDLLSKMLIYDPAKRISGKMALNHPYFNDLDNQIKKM
T1 sequence (P14635 whole entry partner): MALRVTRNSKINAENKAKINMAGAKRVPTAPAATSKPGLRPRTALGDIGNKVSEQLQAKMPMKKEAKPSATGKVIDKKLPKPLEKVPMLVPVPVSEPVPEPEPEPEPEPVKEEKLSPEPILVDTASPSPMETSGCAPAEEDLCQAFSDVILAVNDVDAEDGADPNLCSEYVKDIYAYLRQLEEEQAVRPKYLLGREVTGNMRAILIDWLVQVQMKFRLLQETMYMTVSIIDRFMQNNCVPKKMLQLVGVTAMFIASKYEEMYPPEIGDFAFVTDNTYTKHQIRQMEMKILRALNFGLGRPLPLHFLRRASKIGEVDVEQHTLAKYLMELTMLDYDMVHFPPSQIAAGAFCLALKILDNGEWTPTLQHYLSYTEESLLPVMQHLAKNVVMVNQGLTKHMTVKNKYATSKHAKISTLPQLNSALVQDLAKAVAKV
Chain of tyrosine kinase KIT (P10721 26-976): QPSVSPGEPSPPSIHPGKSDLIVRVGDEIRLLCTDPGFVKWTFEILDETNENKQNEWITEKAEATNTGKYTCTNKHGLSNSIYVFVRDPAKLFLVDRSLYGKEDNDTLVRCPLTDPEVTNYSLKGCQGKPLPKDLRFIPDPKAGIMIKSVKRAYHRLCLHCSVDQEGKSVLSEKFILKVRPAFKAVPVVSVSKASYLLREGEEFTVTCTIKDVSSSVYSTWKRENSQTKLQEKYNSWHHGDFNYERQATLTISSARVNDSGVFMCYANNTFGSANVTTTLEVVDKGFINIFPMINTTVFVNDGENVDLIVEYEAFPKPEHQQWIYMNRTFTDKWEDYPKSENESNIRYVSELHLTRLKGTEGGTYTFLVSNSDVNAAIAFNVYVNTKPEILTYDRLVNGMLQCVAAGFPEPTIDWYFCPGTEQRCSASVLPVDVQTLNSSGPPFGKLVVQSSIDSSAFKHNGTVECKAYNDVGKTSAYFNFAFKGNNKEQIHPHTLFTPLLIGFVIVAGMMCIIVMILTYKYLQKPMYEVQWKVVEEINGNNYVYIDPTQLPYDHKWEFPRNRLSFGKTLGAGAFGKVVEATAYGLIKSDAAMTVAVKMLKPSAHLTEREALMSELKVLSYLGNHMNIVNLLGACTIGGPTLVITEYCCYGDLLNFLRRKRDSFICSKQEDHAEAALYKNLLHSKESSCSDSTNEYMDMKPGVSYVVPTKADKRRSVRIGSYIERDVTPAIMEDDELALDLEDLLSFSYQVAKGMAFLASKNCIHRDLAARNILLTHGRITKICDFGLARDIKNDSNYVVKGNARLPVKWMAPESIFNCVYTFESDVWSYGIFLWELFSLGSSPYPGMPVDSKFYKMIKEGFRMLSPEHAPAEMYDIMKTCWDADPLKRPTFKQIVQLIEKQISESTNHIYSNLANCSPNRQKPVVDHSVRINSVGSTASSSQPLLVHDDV

By pIC50 is commonly meant the negative decadic logarithm of the IC50, by convention in mol/L. Low values mean a high IC50, high ones a low IC50. The IC50 is the concentration that inhibits the measured activity by half. Higher therefore signals weaker potency. For `CCNC(=O)Nc1ccc(Oc2ncnc(N)c2/C=N/OC)cc1Cl` [Cpd 50, 1-{4-[6-amino-5-(methoxyimino-methyl)-pyrimidin-4-yloxy]-2-chloro-phenyl}-3-ethyl-urea], the pIC50 on tyrosine kinase KIT is 6.30; on CDK1:Cyclin-B, under 4.00; against HER2 cytoplasmic domain, under 4.00; at murine Aurora-A, under 4.00. In addition, the IC50 in the data set with HCT-116 colon carcinoma turned out to be 3.7 µM; with A375 malignant melanoma, 3.91 µM. Also, the “inhibition in tumor xenograft models” value in [1] (10 mg/kg qd) was 28-48%. Besides, the plasma levels in [1] (100 mg/kg daily dosing schedule, oral, mice) was determined as 20 µM. Further, the body weight entry in [1] (setting [3]) is given as “no reduction of body weight”. Moreover, the figures for the tolerability result in [1] (setting [3]) and in data set [1] (setting [4]) were “well-tolerated” and “well tolerated”, respectively. For the same molecule, in data set [1] (setting [3]), the treatment-related deaths entry is “no treatment-related deaths”. Further, in data set [1] (setting [4]), the body weights entry is given as “comparable with control animals”. Moreover, the “activity against the V600E Raf mutant” value on V600E Raf mutant is “no activity; also recorded: not active”. The “% Stimulation of cell migration” value was 82% in data set [2] (50 nM), 60% in data set [2] (100 nM), 59% in data set [2] (500 nM) and 34.5% in data set [2] (1 μM).
